Here are results for 3 compounds from patent US9540299B2, “MTOR-independent activator of TFEB for autophagy enhancement and uses thereof” (Hong Kong Baptist University, priority 2015, dated 2017).

One data set has as its system endogenous SNCA. In words: Chronic (21 days) oral administration in SD rats: autophagy markers, SNCA, tolerability. It is filed as in vivo. Conditions: oral 10 mg/kg for 21 days. The method, then: SD rats (n=6 per group) are orally administered by gavage with C1 (10 mg/kg per day) or vehicle (1% CMC-Na) for 21 days. An additional dosage of C1 is given for 6 h before the rats are killed. FIG. 11A is western blots showing the protein levels as indicated in the liver, frontal cortex and striatum. FIG. 11B-11D are quantitative data protein levels in the liver frontal cortex and striatum. Data are presented as the mean±SD (n=6). *p<0.05 vs. the vehicle treatment.
All animal care and procedures are approved by the Hong Kong Baptist University Committee on the Use of Human and Animal Subjects in Teaching and Research. Adult male Sprague-Dawley (SD) rats weighted 350-400 g are maintained on ad libitum food and water with a 12-hour light/dark cycle in a controlled environment. For short-term treatment, rats (n=6 per group) are orally administered by gavage with C1 (10 mg/kg and 25 mg/kg per day) or vehicle (1% sodium carbonyl methylcellulose (CMC-Na)) for 24 h. For chronic treatment, C1 (10 mg/kg per day) is given by gavage to rats for 21 days. At the end of each treatment, an additional dosage of C1 is given for 6 h before the rats are killed. Livers and major brain regions dissected are snap-frozen in liquid nitrogen.
Cells are lysed on ice in 1× Lysis Buffer (9803, Life Technologies) with complete protease inhibitor mixture (04693124001, Roche Applied Science). Animal tissues are homogenized in nine volumes of ice-cold PBS supplemented with protease inhibitors. Cytosolic and nuclear fractions are isolated using protocols similar to those described previously. Anti-Flag or TFEB antibody is added to the whole cell lysates and Dynabeads® Protein G (10003D, Life Technologies) is used for immunoprecipitation. Proteins are separated by 10-15% SDS-PAGE, transferred, and blotted with the antibodies described. The blots are then incubated with secondary antibodies or the Clean-Blot IP Detection Reagent (21230, Thermo Scientific) at room temperature for 1 h. The protein signals are detected by ECL kit (32106, Pierce) and quantified using ImageJ software.
Rats receive oral administration of C1 (10 mg/kg) for 21 days. Another dose of C1 is given for 6 h and the average concentration of C1 in brain tissues is 0.849±0.302 μg/g. Then the autophagy markers in the livers and brains are analyzed. Chronic C1 treatment increases the levels of LC3-II in the livers (FIGS. 11 A and B). […] During the treatment procedure, no changes in body weight or behavior abnormalities are observed.

A further data set addresses T1, purified His-TFEB (Homo sapiens, UniProt P19484).
T1 construct: purchased ORIGENE TP760282
T1 sequence (P19484 1-476): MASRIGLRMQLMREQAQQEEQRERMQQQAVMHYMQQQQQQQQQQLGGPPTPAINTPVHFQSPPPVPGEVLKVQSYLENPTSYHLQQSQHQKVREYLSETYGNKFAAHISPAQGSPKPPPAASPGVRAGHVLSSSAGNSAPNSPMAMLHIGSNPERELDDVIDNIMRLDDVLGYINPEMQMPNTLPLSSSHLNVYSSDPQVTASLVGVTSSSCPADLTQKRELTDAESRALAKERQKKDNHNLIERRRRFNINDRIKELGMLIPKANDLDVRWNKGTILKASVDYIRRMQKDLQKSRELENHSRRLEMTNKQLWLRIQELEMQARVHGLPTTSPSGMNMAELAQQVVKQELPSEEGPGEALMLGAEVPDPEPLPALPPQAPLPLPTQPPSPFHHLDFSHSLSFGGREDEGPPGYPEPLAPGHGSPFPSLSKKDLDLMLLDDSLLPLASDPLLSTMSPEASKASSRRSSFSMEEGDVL
The data set can be described thus: Binding of solid-phase compound to purified recombinant His-TFEB. To be noted: 17 μmol compound powder, RIPA buffer, 2 hours at 4° C.; 55 kDa band by TFEB antibody. The method, then:
Hela cells stably expressing 3×Flag-TFEB are treated with C1 (1 μM) for 12 h. Endogenous MTOR (A) and YWHA (B) are co-immunoprecipitated with Flag-TFEB. The levels of immunoprecipitated MTOR and YWHA are normalized to their corresponding levels in whole cell lysates (WCL). […] However, when MTOR and YWHA coimmunoprecipitated with Flag-TFEB after C1 treatment, interaction of MTOR and YWHA is decreased as compared with control. […] Furthermore, purified His-TFEB (TP760282, ORIGENE) is diluted in RIPA buffer and 17 μmol curcumin (6.3 mg) or C1 (5 mg) powder is added into TFEB solution and incubated for 2 hours at 4° C. with shaking. The supernatant is discarded after centrifuge. The pellet (compounds and the bound protein) is washes 4 times in RIPA buffer and the bound proteins are eluted by adding 2% SDS sampling buffer. The bound proteins are separated on 10% SDS—polyacrylamide gel and visualized by TFEB antibody (Proteintech).

The next data set has as its system N2a cells. In words: Lysosomal markers LAMP1 and CTSD by western blot in N2a cells. It is filed as cell-based, mouse. Conditions: 12 hours. The method, then: N2a cells are treated with different concentrations (0-1 μM) of E4 for 12 hours. Torin 1 (1 μM) is used as a positive control. The expression of LAMP1, pro-CTSD and mature CTSD (M-CTSD) are determined by western blotting (FIG. 25A) and quantified (FIG. 25B). Quantification data are presented as the mean±SD from three independent experiments. *p<0.05, **p<0.01 vs. the control (0.1% DMSO).
After transiently knockdown the expression of TFEB, N2a cells are treated with E4 (1 μM) for 12 hours, the expression of LAMP1, Pro-CTSD and mature CTSD (M-CTSD) are detected by Western blotting (FIG. 29A). Quantification data are presented as the mean±SD from three independent experiments FIG. 29B. **p<0.01 vs. the control (0.1% DMSO).
N2a and HeLa cells are cultured in DMEM supplemented with 10% FBS. HeLa cells stably expressing 3×-Flag-TFEB are maintained in DMEM supplemented with 10% FBS and 500 μg/mL G418. For drug treatment, the full medium is replaced by fresh Opti-MEM I containing the compounds (in 0.1% DMSO) and incubated for the indicated time periods.
N2a cells are transfected with mouse Tfeb siRNA and the non-target siRNA using Lipofectamine RNAiMAX (13778030, Invitrogen) and incubated at 37° C. for 72 hours.
Cells are lysed on ice in 1× Lysis Buffer (9803, Life Technologies) with complete protease inhibitor mixture (04693124001, Roche Applied Science) and phosphatase inhibitor (B15001, Biotool). Cytosolic and nuclear fractions are isolated using protocols similar to those described previously. Proteins are separated by 10-15% SDS-PAGE, transferred, and blotted with the antibodies described. The blots are then incubated with primary and secondary antibodies. The protein signals are detected by the ECL kit (32106, Pierce) and quantified using ImageJ software.

For `COc1ccccc1/C=C/C(=O)/C=C/c1ccccc1OC` [C1, 1,5-bis(2-methoxyphenyl)penta-1,4-dien-3-one], in the data set with endogenous SNCA, the “body weight or behavior abnormalities during treatment” value is reported as “no changes”; the “histological evaluation of major organs (liver, lungs, kidneys, and pancreas)” value is “do not reveal any morphological abnormalities”; the “levels of LC3-II in the livers” value is “increases”; the “levels of TFEB and LC3-II in frontal cortex and striatum” value is “significantly increases”. The “levels of endogenous SQSTM1/p62 and SNCA in rats' brains” value in the data set with endogenous SNCA is given as “significantly decrease”. Further, the “direct binding to purified TFEB” value on purified His-TFEB was “can directly bind”.
With `O=C(/C=C/c1ccccc1I)/C=C/c1ccccc1I` [E4], in the data set on N2a cells (0-1 μM, dose-dependent manner), the “levels of Pro-CTSD and mature CTSD (M-CTSD)” value is recorded as “increases”; the “levels of the lysosomal marker LAMP1” value is listed as “significantly increases”. Also, the “LAMP1, pro-CTSD and CTSD levels in control (non-target siRNA) cells” value in the data set with N2a cells (1 μM) is “significantly increases”.
Turning to `COc1cc(/C=C/C(=O)CC(=O)/C=C/c2ccc(O)c(OC)c2)ccc1O` [curcumin, Curcumin, reference compound], on purified His-TFEB, the “direct binding to purified TFEB” value is “not”.
